Values belong to the molecule of their own block, whether it stands above or below them. Active and inactive are the calls of the source. The calls are words filed in the database; no cut-off is given here. Where a SMILES comes first, the peptide text is derived from it. The star is where a group is joined. Cbz = O=C(OCc1ccccc1)*; CH2F = FC*
Legend:
[1] = target: Mothers against decapentaplegic homolog 2 (Mus musculus) (UniProt Q62432); conditions: at 25 to 50 µM
Description: Inhibition of TGFbeta1-induced SMAD2 phosphorylation in mouse NMuMG cells at 25 to 50 uM incubated for 24 to 72 hrs

[2] = target: Transient receptor potential cation channel subfamily M member 7 (Mus musculus) (UniProt Q923J1); conditions: at 25 to 50 µM
Chain of Transient receptor potential cation channel subfamily M member 7 (Mus musculus) (Q923J1 whole entry): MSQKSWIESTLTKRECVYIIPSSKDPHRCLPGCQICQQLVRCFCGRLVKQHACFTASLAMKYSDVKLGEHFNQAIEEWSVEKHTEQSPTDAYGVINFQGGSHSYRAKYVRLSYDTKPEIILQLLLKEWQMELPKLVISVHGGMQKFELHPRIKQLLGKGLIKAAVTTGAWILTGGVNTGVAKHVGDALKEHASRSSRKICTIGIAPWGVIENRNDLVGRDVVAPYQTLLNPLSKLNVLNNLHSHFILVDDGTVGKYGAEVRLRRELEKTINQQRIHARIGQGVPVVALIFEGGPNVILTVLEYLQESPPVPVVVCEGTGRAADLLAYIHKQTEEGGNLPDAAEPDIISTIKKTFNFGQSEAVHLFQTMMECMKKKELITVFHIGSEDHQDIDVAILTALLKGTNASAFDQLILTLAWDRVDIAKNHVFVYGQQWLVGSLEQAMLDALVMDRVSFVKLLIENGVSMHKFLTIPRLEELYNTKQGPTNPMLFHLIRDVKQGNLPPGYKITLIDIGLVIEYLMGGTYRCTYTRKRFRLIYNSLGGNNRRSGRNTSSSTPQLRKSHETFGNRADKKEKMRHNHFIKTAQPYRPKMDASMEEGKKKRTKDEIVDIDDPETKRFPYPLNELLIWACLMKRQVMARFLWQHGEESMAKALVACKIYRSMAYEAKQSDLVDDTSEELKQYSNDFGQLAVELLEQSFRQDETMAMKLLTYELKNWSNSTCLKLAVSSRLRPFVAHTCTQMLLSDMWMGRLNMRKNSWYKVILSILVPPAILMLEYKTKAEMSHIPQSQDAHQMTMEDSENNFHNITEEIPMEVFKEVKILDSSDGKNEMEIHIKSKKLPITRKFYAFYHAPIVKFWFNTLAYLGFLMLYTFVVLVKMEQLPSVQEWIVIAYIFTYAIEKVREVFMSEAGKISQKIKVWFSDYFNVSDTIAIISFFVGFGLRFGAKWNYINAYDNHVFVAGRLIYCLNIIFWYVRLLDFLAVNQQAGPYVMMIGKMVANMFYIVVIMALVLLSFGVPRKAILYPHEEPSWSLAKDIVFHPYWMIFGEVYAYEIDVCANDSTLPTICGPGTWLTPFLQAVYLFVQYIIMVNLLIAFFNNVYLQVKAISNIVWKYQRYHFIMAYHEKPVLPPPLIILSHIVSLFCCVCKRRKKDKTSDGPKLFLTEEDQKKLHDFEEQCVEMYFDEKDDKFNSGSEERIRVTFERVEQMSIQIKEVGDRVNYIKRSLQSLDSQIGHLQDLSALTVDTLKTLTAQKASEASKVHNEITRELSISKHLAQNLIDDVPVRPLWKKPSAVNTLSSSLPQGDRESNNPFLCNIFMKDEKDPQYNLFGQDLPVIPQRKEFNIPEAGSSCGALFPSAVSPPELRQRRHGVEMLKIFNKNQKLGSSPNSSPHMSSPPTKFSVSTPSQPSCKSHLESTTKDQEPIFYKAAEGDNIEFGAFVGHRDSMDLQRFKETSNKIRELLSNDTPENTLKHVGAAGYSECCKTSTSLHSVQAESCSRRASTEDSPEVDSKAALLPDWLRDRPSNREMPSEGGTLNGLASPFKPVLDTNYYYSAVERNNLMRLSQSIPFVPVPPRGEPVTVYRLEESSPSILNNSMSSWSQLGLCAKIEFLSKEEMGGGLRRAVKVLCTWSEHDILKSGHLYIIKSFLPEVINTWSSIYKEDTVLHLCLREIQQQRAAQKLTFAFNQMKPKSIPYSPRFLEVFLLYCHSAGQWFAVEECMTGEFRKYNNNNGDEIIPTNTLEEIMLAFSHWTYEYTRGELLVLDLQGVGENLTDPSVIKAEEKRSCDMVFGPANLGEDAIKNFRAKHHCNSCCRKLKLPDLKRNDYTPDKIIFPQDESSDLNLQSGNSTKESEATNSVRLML
Description: Inhibition of TRPM7 in mouse NMuMG cells assessed as suppression of TGFbeta1-induced EMT by measuring alpha-SMA expression at 25 to 50 uM incubated for 24 to 72 hrs by Western blot analysis

[3] = target: Transient receptor potential cation channel subfamily M member 7 (Mus musculus) (UniProt Q923J1); conditions: at 25 to 50 µM; remark: listed apart in the source
Description: Inhibition of TRPM7 in mouse NMuMG cells assessed as suppression of TGFbeta1-induced calpain activity by measuring Filamin-A levels at 25 to 50 uM incubated for 24 to 72 hrs by Western blot analysis

[4] = organism: Mus musculus; assay: Inhibition of calcineurin in mouse NMuMG cells assessed as suppression of TGFbeta1-induced EMT by measuring alpha-SMA expression at 0.25 to 0.75 uM incubated for 72 hrs by Western blot analysis; format: cell-based
[5] = organism: Mus musculus; assay: Inhibition of TGFbeta receptor in mouse NMuMG cells assessed as suppression of TGFbeta1-induced EMT by measuring alpha-SMA expression at 1 to 10 uM incubated for 24 to 72 hrs by Western blot analysis; format: cell-based
[6] = organism: Mus musculus; assay: Inhibition of TGFbeta receptor in mouse NMuMG cells assessed as suppression of TGFbeta1-induced SMAD2 phosphorylation at 1 to 10 uM incubated for 24 to 72 hrs by Western blot analysis; format: cell-based
[7] = organism: Mus musculus; assay: Inhibition of TGFbeta receptor in mouse NMuMG cells assessed as suppression of TGFbeta1-induced calpain activity by measuring Filamin-A levels at 1 to 10 uM incubated for 24 to 72 hrs by Western blot analysis; format: cell-based
[8] = target: Mothers against decapentaplegic homolog 2 (Mus musculus) (UniProt Q62432); assay: Inhibition of TGFbeta1-induced SMAD2 phosphorylation in mouse NMuMG cells at 25 to 50 uM incubated for 72 hrs; format: cell-based
[9] = target: Transient receptor potential cation channel subfamily M member 7 (Homo sapiens) (UniProt Q96QT4); assay: Inhibition of TRPM7 in NHLF assessed as inhibition of TGFB1-induced FMT by measuring alpha-SMA expression at 25 to 50 uM incubated for 24 hrs by Western blot analysis
Chain of Transient receptor potential cation channel subfamily M member 7 (Homo sapiens) (Q96QT4 whole entry): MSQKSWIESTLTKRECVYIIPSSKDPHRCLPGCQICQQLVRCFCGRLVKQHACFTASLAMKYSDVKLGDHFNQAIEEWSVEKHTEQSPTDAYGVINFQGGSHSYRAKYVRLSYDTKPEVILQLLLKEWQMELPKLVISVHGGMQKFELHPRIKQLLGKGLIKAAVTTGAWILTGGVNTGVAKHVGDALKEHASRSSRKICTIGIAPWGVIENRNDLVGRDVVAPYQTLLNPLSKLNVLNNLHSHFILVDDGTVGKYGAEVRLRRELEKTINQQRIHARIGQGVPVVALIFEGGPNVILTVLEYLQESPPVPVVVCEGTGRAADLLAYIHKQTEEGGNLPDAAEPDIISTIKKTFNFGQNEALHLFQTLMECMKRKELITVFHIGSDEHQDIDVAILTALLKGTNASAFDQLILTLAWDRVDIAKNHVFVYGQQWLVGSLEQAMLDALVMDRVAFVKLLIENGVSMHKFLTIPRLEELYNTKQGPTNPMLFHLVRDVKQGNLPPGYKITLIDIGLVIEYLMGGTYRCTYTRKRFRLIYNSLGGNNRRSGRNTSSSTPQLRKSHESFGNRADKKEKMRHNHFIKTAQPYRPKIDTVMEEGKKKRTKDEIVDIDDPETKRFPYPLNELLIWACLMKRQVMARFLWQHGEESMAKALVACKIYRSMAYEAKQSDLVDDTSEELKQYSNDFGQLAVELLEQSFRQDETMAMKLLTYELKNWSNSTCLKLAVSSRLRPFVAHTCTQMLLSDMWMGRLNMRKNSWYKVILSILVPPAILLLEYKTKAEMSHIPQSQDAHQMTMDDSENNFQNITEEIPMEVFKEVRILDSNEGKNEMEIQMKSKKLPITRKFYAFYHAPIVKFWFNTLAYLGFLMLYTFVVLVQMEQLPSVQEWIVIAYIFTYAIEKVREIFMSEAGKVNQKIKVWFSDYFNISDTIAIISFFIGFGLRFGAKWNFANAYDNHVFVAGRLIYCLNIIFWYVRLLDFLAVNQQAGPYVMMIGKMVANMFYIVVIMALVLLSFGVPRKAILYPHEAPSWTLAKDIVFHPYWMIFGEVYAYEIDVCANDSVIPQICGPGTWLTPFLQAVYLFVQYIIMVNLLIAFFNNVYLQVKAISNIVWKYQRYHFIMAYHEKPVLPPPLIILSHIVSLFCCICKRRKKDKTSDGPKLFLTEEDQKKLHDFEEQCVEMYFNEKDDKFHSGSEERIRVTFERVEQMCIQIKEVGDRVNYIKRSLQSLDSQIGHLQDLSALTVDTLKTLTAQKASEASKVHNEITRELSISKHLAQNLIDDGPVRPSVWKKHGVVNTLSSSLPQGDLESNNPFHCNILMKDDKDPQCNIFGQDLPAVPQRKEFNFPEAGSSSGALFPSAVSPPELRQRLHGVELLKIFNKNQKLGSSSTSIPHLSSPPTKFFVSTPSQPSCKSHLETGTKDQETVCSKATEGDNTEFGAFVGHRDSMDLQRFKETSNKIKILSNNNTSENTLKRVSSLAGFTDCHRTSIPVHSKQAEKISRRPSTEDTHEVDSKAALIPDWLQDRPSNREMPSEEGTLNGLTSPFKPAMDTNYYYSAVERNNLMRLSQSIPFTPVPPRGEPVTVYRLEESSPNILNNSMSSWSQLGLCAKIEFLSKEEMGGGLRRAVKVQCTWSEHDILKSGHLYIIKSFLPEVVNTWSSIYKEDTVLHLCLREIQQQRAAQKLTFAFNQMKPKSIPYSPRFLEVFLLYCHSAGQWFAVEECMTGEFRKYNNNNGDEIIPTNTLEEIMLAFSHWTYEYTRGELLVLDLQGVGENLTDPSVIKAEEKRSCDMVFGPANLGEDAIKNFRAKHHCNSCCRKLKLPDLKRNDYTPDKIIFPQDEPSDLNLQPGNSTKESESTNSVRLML

[10] = target: T1, Calpain-9 (Homo sapiens, UniProt O14815); assay: Inhibition of human recombinant mini-CAPN9 pre-incubated for 10 mins before calpain FRET peptide 5-FAM /QXL520 substrate addition by FLIPR assay
T1 sequence (O14815 whole entry): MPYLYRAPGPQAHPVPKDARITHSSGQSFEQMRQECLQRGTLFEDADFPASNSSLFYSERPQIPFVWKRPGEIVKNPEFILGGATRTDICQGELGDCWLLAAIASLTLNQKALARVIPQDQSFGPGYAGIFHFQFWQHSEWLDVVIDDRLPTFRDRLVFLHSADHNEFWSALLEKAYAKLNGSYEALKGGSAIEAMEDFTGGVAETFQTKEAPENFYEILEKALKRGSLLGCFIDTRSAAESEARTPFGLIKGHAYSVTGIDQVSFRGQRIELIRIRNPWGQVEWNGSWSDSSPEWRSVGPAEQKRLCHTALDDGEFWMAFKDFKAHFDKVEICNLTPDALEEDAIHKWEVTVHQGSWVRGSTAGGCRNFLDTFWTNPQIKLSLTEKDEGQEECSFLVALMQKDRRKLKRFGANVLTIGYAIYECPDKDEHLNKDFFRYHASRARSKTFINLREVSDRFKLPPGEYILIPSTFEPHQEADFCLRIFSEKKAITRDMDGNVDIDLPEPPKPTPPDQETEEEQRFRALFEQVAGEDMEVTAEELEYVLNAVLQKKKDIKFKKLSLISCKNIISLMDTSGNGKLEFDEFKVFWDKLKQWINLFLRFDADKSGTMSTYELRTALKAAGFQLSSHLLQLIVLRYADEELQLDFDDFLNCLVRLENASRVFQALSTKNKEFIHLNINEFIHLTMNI

[11] = organism: Mus musculus; assay: Inhibition of calpain in mouse NMuMG cells assessed as suppression of TGFbeta1-induced EMT by measuring alpha-SMA expression at 25 to 50 uM incubated for 24 to 72 hrs by Western blot analysis; format: cell-based
[12] = organism: Mus musculus; assay: Inhibition of calpain in mouse NMuMG cells assessed as suppression of TGFbeta1-induced calpain activity by measuring Filamin-A levels at 25 to 50 uM incubated for 24 to 72 hrs by Western blot analysis; format: cell-based
[13] = organism: Mus musculus; assay: Inhibition of calpain in mouse NMuMG cells assessed as suppression of TGFbeta1-induced EMT by measuring alpha-SMA expression at 10 to 20 uM incubated for 24 to 72 hrs by Western blot analysis; format: cell-based
[14] = target: Mothers against decapentaplegic homolog 2 (Mus musculus) (UniProt Q62432); assay: Inhibition of TGFbeta1-induced SMAD2 phosphorylation in mouse NMuMG cells at 10 to 20 uM incubated for 24 to 72 hrs; format: cell-based
[15] = organism: Mus musculus; assay: Inhibition of calpain in mouse NMuMG cells assessed as suppression of TGFbeta1-induced EMT by measuring collagen 1A1 expression at 10 to 20 uM incubated for 48 hrs; format: cell-based
[16] = organism: Mus musculus; assay: Inhibition of calpain in mouse NMuMG cells assessed as suppression of TGFbeta1-induced EMT by measuring vimentin expression at 10 to 20 uM incubated for 48 hrs; format: cell-based
[17] = organism: Mus musculus; assay: Inhibition of calpain in mouse NMuMG cells assessed as suppression of TGFbeta1-induced EMT by measuring MMP2 expression at 10 to 20 uM incubated for 48 hrs; format: cell-based
[18] = organism: Mus musculus; assay: Inhibition of calpain in mouse NMuMG cells assessed as suppression of TGFbeta1-induced EMT by measuring MMP9 expression at 10 to 20 uM incubated for 48 hrs; format: cell-based
[19] = organism: Mus musculus; assay: Inhibition of calpain in mouse NMuMG cells assessed as suppression of TGFbeta1-induced E-cadherin expression at 10 to 20 uM by immunofluorescence microscopy; format: cell-based
[20] = organism: Mus musculus; assay: Inhibition of calpain in mouse NMuMG cells assessed as suppression of TGFbeta1-induced actin cytoskeleton reorganization at 10 to 20 uM; format: cell-based
[21] = system: MDCK; assay: Inhibition of calpain in MDCK cells assessed as suppression of TGFbeta1-induced EMT by measuring alpha-SMA expression at 10 to 20 uM incubated for 24 to 72 hrs by Western blot analysis; format: cell-based; conditions: Canis lupus familiaris
[22] = organism: Mus musculus; assay: Inhibition of calpain in mouse NMuMG cells assessed as suppression of TGFbeta1-induced EMT by measuring alpha-SMA expression at 10 to 20 uM incubated for 48 to 72 hrs after 72 hrs pre-incubation with TGFbeta with continued presence of TGFbeta by Western blot analysis; format: cell-based
[23] = organism: Mus musculus; assay: Inhibition of calpain in mouse NMuMG cells assessed as suppression of TGFbeta1-induced E-cadherin expression at 10 to 20 uM incubated for 48 to 72 hrs after 72 hrs pre-incubation with TGFbeta with continued presence of TGFbeta by immunofluorescence microscopy; format: cell-based
[24] = organism: Mus musculus; assay: Inhibition of calpain in mouse NMuMG cells assessed as suppression of TGFbeta1-induced actin cytoskeleton reorganization at 10 to 20 uM incubated for 48 to 72 hrs after 72 hrs pre-incubation with TGFbeta with continued presence of TGFbeta; format: cell-based
[25] = target: Calpain1/2 (Homo sapiens) (UniProt P17655+P07384); conditions: 10 to 20 uM
Description: Inhibition of calpain in NHLF assessed as inhibition of TGFB1-induced FMT by measuring alpha-SMA expression at 10 to 20 uM incubated for 24 hrs by Western blot analysis

Chain of Mothers against decapentaplegic homolog 2 (Mus musculus) (Q62432 whole entry): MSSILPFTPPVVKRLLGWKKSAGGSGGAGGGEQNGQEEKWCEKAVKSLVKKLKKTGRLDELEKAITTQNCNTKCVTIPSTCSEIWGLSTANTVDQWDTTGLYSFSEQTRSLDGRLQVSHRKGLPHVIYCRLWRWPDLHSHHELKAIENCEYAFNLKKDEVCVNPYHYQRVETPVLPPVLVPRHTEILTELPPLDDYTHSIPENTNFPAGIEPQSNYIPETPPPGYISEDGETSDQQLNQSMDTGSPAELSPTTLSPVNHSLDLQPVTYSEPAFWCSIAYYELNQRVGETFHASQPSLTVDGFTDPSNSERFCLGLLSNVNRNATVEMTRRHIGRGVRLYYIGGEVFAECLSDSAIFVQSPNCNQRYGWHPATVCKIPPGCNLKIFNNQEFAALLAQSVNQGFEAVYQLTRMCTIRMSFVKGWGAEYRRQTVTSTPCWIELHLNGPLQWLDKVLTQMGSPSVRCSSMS

Compound: C=CC[C@@H]1/C=C(\C)C[C@H](C)C[C@H](OC)[C@H]2O[C@@](O)(C(=O)C(=O)N3CCCC[C@H]3C(=O)O[C@H](/C(C)=C/[C@@H]3CC[C@@H](O)[C@H](OC)C3)[C@H](C)[C@@H](O)CC1=O)[C@H](C)C[C@@H]2OC
- inhibition [4]: Active

Compound: NC(=O)c1ccc(-c2nc(-c3ccccn3)c(-c3ccc4c(c3)OCO4)[nH]2)cc1
- inhibition [5]: Active
- inhibition [6]: Active
- inhibition [7]: Active

Compound: C[C@H](NC(=O)[C@H](Cc1ccccc1)NC(=O)OCc1ccccc1)C(=O)CF
- IC50 [10]: 100 µM

Compound: CCCC[C@@H](C=O)NC(=O)[C@H](CC(C)C)NC(=O)OCc1ccccc1
- inhibition [11]: Active
- inhibition [12]: Active
- inhibition [1]: inactive

Compound: COC(=O)C[C@H](NC(=O)[C@H](C)NC(=O)[C@@H](NC(=O)OCc1ccccc1)C(C)C)C(=O)CF (Cbz-Val-Ala-Asp(OMe)-CH2F)
- IC50 [10]: 100 µM

Further lines, with some results ahead:

- inhibition [1]: inactive
- inhibition [2]: Active
- inhibition [3]: Active
Compound: NCCOB(c1ccccc1)c1ccccc1

- inhibition [8]: inactive
- inhibition [9]: Active
- inhibition [2]: Active
- inhibition [3]: Active
Compound: c1ccc2c(c1)CCC[C@H]2Nc1nc2ccccc2[nH]1

- inhibition [14]: inactive
- inhibition [25]: Active
Compound: CC(C)[C@H](NC(=O)OCc1ccccc1)C(=O)N[C@H](C=O)Cc1ccccc1 (Cbz-Val-Phe-aldehyde)
- inhibition [13]: Active
- inhibition [15]: Active
- inhibition [16]: Active
- inhibition [17]: Active
- inhibition [18]: Active
- inhibition [19]: Active
- inhibition [20]: Active
- inhibition [21]: Active
- inhibition [22]: Active
- inhibition [23]: Active
- inhibition [24]: Active
